Source: patent publication US20120252796A1, “COMPOUNDS FOR THE TREATMENT OF DYSLIPIDEMIA AND RELATED DISEASES” (priority 2009, published 2012)
Blank lines part the entries; values can stand above or below the molecule they belong to.

Target: PCSK9 (Homo sapiens, UniProt Q8NBP7)
Assay: PCSK9-LDLR in vitro Binding Assay (ELISA)
Conditions: for inhibition at 5 µM: Concentration 5 μM
Description: The PCSK9-LDLR in vitro Binding Assay is a quantitative solid phase binding assay between PCSK9 and recombinant LDLR. Plates were pre-coated with a recombinant LDLR-AB domain, which binds PCSK9. Test compound at different concentration was added to the PCSK9 and added to LDLR immobilized on the wells. The amount of bound PCSK9 is measured by binding it with biotinylated anti-His-tag monoclonal antibody, followed by binding with horseradish peroxidase conjugated streptavidin substrate. The color was quantified by ELISA reader at […] which reflects the relative amount of PCSK9 that binds to LDLR in presence and absence of the inhibitor. EC50 values were calculated by nonlinear regression analysis using graph pad prism software. Each concentration point represents values in duplicates.

Chain of PCSK9 (Q8NBP7 153-692): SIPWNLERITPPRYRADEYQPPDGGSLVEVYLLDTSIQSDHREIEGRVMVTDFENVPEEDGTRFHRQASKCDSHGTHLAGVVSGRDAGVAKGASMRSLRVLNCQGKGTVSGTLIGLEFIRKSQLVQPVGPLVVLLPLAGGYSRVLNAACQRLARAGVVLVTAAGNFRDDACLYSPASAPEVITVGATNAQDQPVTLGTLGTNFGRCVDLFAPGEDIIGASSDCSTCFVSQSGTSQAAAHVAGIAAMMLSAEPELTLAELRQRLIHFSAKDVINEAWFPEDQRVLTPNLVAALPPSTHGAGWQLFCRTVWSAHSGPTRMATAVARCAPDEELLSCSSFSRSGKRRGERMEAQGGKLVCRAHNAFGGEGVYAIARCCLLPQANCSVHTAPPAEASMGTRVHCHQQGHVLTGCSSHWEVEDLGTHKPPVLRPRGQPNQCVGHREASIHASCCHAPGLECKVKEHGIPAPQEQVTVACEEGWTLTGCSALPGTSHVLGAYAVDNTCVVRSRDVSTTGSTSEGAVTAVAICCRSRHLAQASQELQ
Chain of PCSK9 (Q8NBP7 31-152 partner limits assumed): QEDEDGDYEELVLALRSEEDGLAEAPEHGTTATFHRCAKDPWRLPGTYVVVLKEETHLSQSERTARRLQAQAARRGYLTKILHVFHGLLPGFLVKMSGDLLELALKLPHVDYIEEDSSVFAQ

% Inhibition PCSK9 (Concentration 1 μM, 1 µM): 7%
% Inhibition PCSK9 (Concentration 10 μM, 10 µM): 12%
% Inhibition PCSK9 (Concentration 100 μM, 100 µM): 23%
Molecule: Cc1oc(-c2ccncc2)nc1CC1COC(C)(C(=O)NO)OC1 (centres unmarked) [Example 81, N-hydroxy-2-methyl-5-t-((5-methyl-2-(pyridin-4-yl)oxazol-4-yl)methyl)-1,3-dioxane-2-carboxamide]

% Inhibition PCSK9 (Concentration 1 μM, 1 µM): 23%
% Inhibition PCSK9 (Concentration 10 μM, 10 µM): 25%
% Inhibition PCSK9 (Concentration 100 μM, 100 µM): 31%
Molecule: Cc1ccc(-c2nc(CC3COC(C)(C(=O)N4CCOCC4)OC3)c(C)o2)cc1 (centres unmarked) [Example 66, (2-methyl-5-c-((5-methyl-2-(p-tolyl)oxazol-4-yl)methyl)-1,3-dioxan-2-yl)(morpholino)methanone]

% Inhibition PCSK9 (Concentration 100 μM): 12%
Molecule: Cc1oc(-c2ccccc2)nc1CC1COC(C)(C(=O)N2CCSCC2)OC1 (centres unmarked) [Example 16, (2-methyl-5-c-((5-methyl-2-phenyloxazol-4-yl)methyl)-1,3-dioxan-2-yl)(thiomorpholino)methanone]

inhibition at 5 µM: 20%
inhibition at 10 µM (Concentration 10 μM): 30%
inhibition at 100 µM (Concentration 100 μM): 44%
Molecule: Cc1oc(-c2ccccc2)nc1CC1COC(C)(C(=O)N2CCOCC2)OC1 (centres unmarked) [Example 11, (2-methyl-5-((5-methyl-2-phenyloxazol-4-yl)methyl)-1,3-dioxan-2-yl)(morpholino)methanone]

% Inhibition PCSK9 (Concentration 10 μM): 20%
% Inhibition PCSK9 (Concentration 100 μM): 32%
Molecule: Cc1oc(-c2ccccc2)nc1CCC1COC(C)(C(=O)NCC(=O)N2CCSCC2)OC1 (centres unmarked) [Example 52, 2-methyl-5-c-(2-(5-methyl-2-phenyloxazol-4-yl)ethyl)-N-(2-oxo-2-thiomorpholinoethyl)-1,3-dioxane-2-carboxamide]

inhibition at 10 µM (Concentration 10 μM): 10%
inhibition at 100 µM (Concentration 100 μM): 40%
Molecule: Cc1ccc(-n2nc(C(C)(C)C)cc2CC2COC(C)(C(=O)N3CCN(C)CC3)OC2)cc1 (centres unmarked) [Example 105, (5-((3-(tert-butyl)-1-(p-tolyl)-1H-pyrazol-5-yl)methyl)-2-methyl-1,3-dioxan-2-yl)(4-methylpiperazin-1-yl)methanone]

inhibition at 5 µM: 6%
inhibition at 10 µM (Concentration 10 μM): 17%
Molecule: Cc1ccc(-c2nc(CC3COC(C)(C(=O)NOCc4ccccc4)OC3)c(C)o2)cc1 (centres unmarked) [Example 56, N-benzyloxy-2-methyl-5-((5-methyl-2-(p-tolyl)oxazol-4-yl)methyl)-1,3-dioxane-2-carboxamide]

% Inhibition PCSK9 (Concentration 100 μM): 17%
Molecule: Cc1oc(-c2ccccc2)nc1CCC1COC(C)(C(=O)NCC(=O)N2CCOCC2)OC1 (centres unmarked) [Example 49, 2-methyl-5-t-(2-(5-methyl-2-phenyloxazol-4-yl)ethyl)-N-(2-morpholino-2-oxoethyl)-1,3-dioxane-2-carboxamide]

% Inhibition PCSK9 (Concentration 10 μM): 15%
% Inhibition PCSK9 (Concentration 100 μM): 12%
Molecule: Cc1oc(-c2ccccc2)nc1CC1COC(C)(C(=O)NCC2CCOCC2)OC1 (centres unmarked) [Example 9, 2-methyl-5-c-((5-methyl-2-phenyloxazol-4-yl)methyl)-N—((tetrahydro-2H-pyran-4-yl)methyl)-1,3-dioxane-2-carboxamide]

% Inhibition PCSK9 (Concentration 10 μM): 8%
% Inhibition PCSK9 (Concentration 100 μM): 12%
Molecule: Cc1oc(-c2ccccc2)nc1CC1COC(C)(C(=O)NCCC(=O)N2CCS(=O)(=O)CC2)OC1 (centres unmarked) [Example 29, N-(3-(1,1-dioxidothiomorpholino)-3-oxopropyl)-2-methyl-5-c-((5-methyl-2-phenyloxazol-4-yl)methyl)-1,3-dioxane-2-carboxamide]

% Inhibition PCSK9 (Concentration 1 μM): 28%
% Inhibition PCSK9 (Concentration 10 μM, 10 µM): 26%
% Inhibition PCSK9 (Concentration 100 μM, 100 µM): 70%
Molecule: Cc1ccc(-c2nc(CC3COC(C)(C(=O)NO)OC3)c(C)o2)cc1 (centres unmarked) [Example 60, N-hydroxy-2-methyl-5-c-((5-methyl-2-(p-tolyl)oxazol-4-yl)methyl)-1,3-dioxane-2-carboxamide]

% Inhibition PCSK9 (Concentration 1 μM, 1 µM): 15%
% Inhibition PCSK9 (Concentration 10 μM, 10 µM): 11%
% Inhibition PCSK9 (Concentration 100 μM, 100 µM): 20%
Molecule: Cc1ccc(-c2nc(CC3COC(C)(C(=O)NCC4CCOCC4)OC3)c(C)o2)s1 (centres unmarked) [Example 75, 2-methyl-5-t-((5-methyl-2-(5-methylthiophen-2-yl)oxazol-4-yl)methyl)-N—((tetrahydro-2H-pyran-4-yl)methyl)-1,3-dioxane-2-carboxamide]

% Inhibition PCSK9 (Concentration 10 μM): 11%
% Inhibition PCSK9 (Concentration 100 μM): 4%
Molecule: Cc1oc(-c2ccccc2)nc1CC1COC(C)(C(=O)N2CCCCC2)OC1 (centres unmarked) [Example 15, (2-methyl-5-c-((5-methyl-2-phenyloxazol-4-yl)methyl)-1,3-dioxan-2-yl)(piperidin-1-yl)methanone]

% Inhibition PCSK9 (Concentration 10 μM): 10%
% Inhibition PCSK9 (Concentration 100 μM): 35%
Molecule: Cc1oc(-c2ccccc2)nc1CCC1COC(C)(C(=O)NCC(=O)N2CCN(C)CC2)OC1 (centres unmarked) [Example 51, 2-methyl-5-c-(2-(5-methyl-2-phenyloxazol-4-yl)ethyl)-N-(2-(4-methylpiperazin-1-yl)-2-oxoethyl)-1,3-dioxane-2-carboxamide]

Molecule: Cc1oc(-c2ccccc2)nc1CCC1COC(C)(C(=O)N2CCS(=O)(=O)CC2)OC1 (centres unmarked) [Example 46, (1,1-dioxidothiomorpholino)(2-methyl-5-c-(2-(5-methyl-2-phenyloxazol-4-yl)ethyl)-1,3-dioxan-2-yl)methanone]
% Inhibition PCSK9 (Concentration 10 μM): 12%
% Inhibition PCSK9 (Concentration 100 μM): 18%

% Inhibition PCSK9 (Concentration 100 μM): 15%
Molecule: Cc1oc(-c2ccccc2)nc1CC1COC(C)(C(=O)N2CCS(=O)(=O)CC2)OC1 (centres unmarked) [Example 17, (1,1-dioxidothiomorpholino)(2-methyl-5-c-((5-methyl-2-phenyloxazol-4-yl)methyl)-1,3-dioxan-2-yl)methanone]

% Inhibition PCSK9 (Concentration 1 μM, 1 µM): 20%
% Inhibition PCSK9 (Concentration 10 μM, 10 µM): 25%
% Inhibition PCSK9 (Concentration 100 μM): 42%
Molecule: Cc1oc(-c2ccncc2)nc1CC1COC(C)(C(=O)N2CCOCC2)OC1 (centres unmarked) [Example 83, (2-methyl-5-t-((5-methyl-2-(pyridin-4-yl)oxazol-4-yl)methyl)-1,3-dioxan-2-yl)(morpholino)methanone]

% Inhibition PCSK9 (Concentration 10 μM): 25%
% Inhibition PCSK9 (Concentration 100 μM): 17%
Molecule: Cc1oc(-c2ccccc2)nc1CC1COC(C)(C(=O)NCC(=O)N2CCCCC2)OC1 (centres unmarked) [Example 22, 2-methyl-5-c-((5-methyl-2-phenyloxazol-4-yl)methyl)-N-(2-oxo-2-(piperidin-1-yl)ethyl)-1,3-dioxane-2-carboxamide]

% Inhibition PCSK9 (Concentration 1 μM, 1 µM): 3%
% Inhibition PCSK9 (Concentration 10 μM, 10 µM): 21%
% Inhibition PCSK9 (Concentration 100 μM, 100 µM): 25%
Molecule: Cc1ccc(-c2nc(CC3COC(C)(C(=O)N4CCOCC4)OC3)c(C)o2)cc1 (centres unmarked) [Example 67, (2-methyl-5-t-((5-methyl-2-(p-tolyl)oxazol-4-yl)methyl)-1,3-dioxan-2-yl)(morpholino)methanone]

% Inhibition PCSK9 (Concentration 10 μM): 5%
% Inhibition PCSK9 (Concentration 100 μM): 32%
Molecule: Cc1ccc(-n2nc(C(C)(C)C)cc2CC2COC(C)(C(=O)NO)OC2)cc1 (centres unmarked) [Example 99, N-(hydroxy)-5-c-((3-(tert-butyl)-1-(p-tolyl)-1H-pyrazol-5-yl)methyl)-2-methyl-1,3-dioxane-2-carboxamide]

inhibition at 0.1 µM (Concentration 0.1 μM): 17%
inhibition at 1 µM (Concentration 1 μM): 21%
inhibition at 10 µM (Concentration 10 μM): 14%
inhibition at 100 µM (Concentration 100 μM): 41%
Molecule: Cc1ccc(-c2nc(CC3COC(C)(C(=O)NCC4CCOCC4)OC3)c(C)o2)cc1 (centres unmarked) [Example 62, 2-methyl-5-((5-methyl-2-(p-tolyl)oxazol-4-yl)methyl)-N—((tetrahydro-2H-pyran-4-yl)methyl)-1,3-dioxane-2-carboxamide]

% Inhibition PCSK9 (Concentration 1 μM, 1 µM): 13%
% Inhibition PCSK9 (Concentration 10 μM, 10 µM): 20%
% Inhibition PCSK9 (Concentration 100 μM): 42%
Molecule: Cc1oc(-c2ccncc2)nc1CC1COC(C)(C(=O)N2CCOCC2)OC1 (centres unmarked) [Example 82, (2-methyl-5-c-((5-methyl-2-(pyridin-4-yl)oxazol-4-yl)methyl)-1,3-dioxan-2-yl)(morpholino)methanone]

% Inhibition PCSK9 (Concentration 10 μM): 15%
% Inhibition PCSK9 (Concentration 100 μM): 16%
Molecule: Cc1oc(-c2ccccc2)nc1CC1COC(C)(C(=O)NCC(=O)NCC2CCOCC2)OC1 (centres unmarked) [Example 25, 2-methyl-5-c-((5-methyl-2-phenyloxazol-4-yl)methyl)-N-(2-oxo-2-(((tetrahydro-2H-pyran-4-yl)methyl)amino)methyl)-1,3-dioxane-2-carboxamide]

% Inhibition PCSK9 (10 µM): 14%
% Inhibition PCSK9 (100 µM): 25%
Molecule: (2-methyl-5-c-(2-(5-methyl-2-phenyloxazol-4-yl)ethyl)-1,3-dioxan-2-yl)(piperidin-1-yl)methanone [Example 44]

% Inhibition PCSK9 (Concentration 10 μM, 10 µM): 14%
% Inhibition PCSK9 (Concentration 100 μM, 100 µM): 16%
Molecule: Cc1ccc(-c2nc(CC3COC(C)(C(=O)N4CCOCC4)OC3)c(C)o2)s1 (centres unmarked) [Example 77]

inhibition at 1 µM (Concentration 1 μM): 11%
inhibition at 10 µM (Concentration 10 μM): 26%
inhibition at 100 µM (Concentration 100 μM): 35%
Molecule: Cc1ccc(-c2nc(CC3COC(C)(C(=O)N4CCOCC4)OC3)c(C)o2)cc1 (centres unmarked) [Example 65, (2-methyl-5-((5-methyl-2-(p-tolyl)oxazol-4-yl)methyl)-1,3-dioxan-2-yl)(morpholino)methanone]

inhibition at 10 µM (Concentration 10 μM): 21%
inhibition at 100 µM (Concentration 100 μM): 29%
Molecule: CC(=O)C(Cc1ccccc1)NC(=O)C1(C)OCC(CCc2nc(-c3ccccc3)oc2C)CO1 (centres unmarked) [Example 54, 2-methyl-5-(2-(5-methyl-2-phenyloxazol-4-yl)ethyl)-N-(3-oxo-1-phenylbutan-2-yl)-1,3-dioxane-2-carboxamide]

% Inhibition PCSK9 (Concentration 1 μM): 6%
% Inhibition PCSK9 (Concentration 10 μM, 10 µM): 17%
% Inhibition PCSK9 (Concentration 100 μM, 100 µM): 27%
Molecule: Cc1ccc(-c2nc(CC3COC(C)(C(=O)N4CCOCC4)OC3)c(C)o2)s1 (centres unmarked) [Example 76]

% Inhibition PCSK9 (Concentration 10 μM): 10%
Molecule: CC1(C(=O)NO)OCC(CCCn2c3ccccc3c3ccccc32)CO1 (centres unmarked) [Example 96, 5-c-(3-(9H-carbazol-9-yl)propyl)-N-hydroxy-2-methyl-1,3-dioxane-2-carboxamide]

inhibition at 1 µM (Concentration 1 μM): 40%
inhibition at 100 µM (Concentration 100 μM): 39%
Molecule: Cc1oc(-c2ccccc2)nc1CC1COC(C)(C(=O)NCC(=O)N2CCOCC2)OC1 (centres unmarked) [Example 18, 2-methyl-5-((5-methyl-2-phenyloxazol-4-yl)methyl)-N-(2-morpholino-2-oxoethyl)-1,3-dioxane-2-carboxamide]
